Reference: PMC5344956 (Cancer Chemotherapy and Pharmacology, 2017)

Legend:
[1] = Metabolite characterization by LC/MS/MS in human plasma, urine, and feces; conditions: human plasma, urine, feces; LC/MS/MS
Procedure: The remaining eluate stream of 0.16 mL/min from the HPLC runs was diverted to the inlet of the mass spectrometer. The samples were analyzed using a heated electrospray ionization probe. Full-scan positive ion MS data were collected using Finnigan Exactive (MS^1) or Q-Exactive (MS^1 and MS^2) mass spectrometers (Thermo Fisher Scientific Inc.) Exact conditions are described in the Online Resource 3.
Finnigan Exactive or Q-Exactive mass spectrometers (Thermo Fisher Scientific Inc., San Jose, CA) were used to collect full scan MS^1 and MS^2 data.

BCR–ABL [2] = assay: In vitro kinase activity screen against BCR–ABL (data not shown); type: biochemical
[3] = Plasma pharmacokinetics of TRA, ponatinib and metabolites after a single oral 45-mg [14C]ponatinib dose; conditions: for time postdose at which C max / maximal levels in plasma were observed: single oral 45-mg dose, M23 by radiochromatography; for concentration at 144 h: oral
Procedure: The subject release criterion was defined as follows: the combined urine and fecal radioactivity excretion for two consecutive days should fall below 1% of the dose administered.
Detailed procedures on sample collection, storage, and shipment are described in Online Resource 1. […] Fecal homogenates were prepared by adding water (four times the feces weight) and homogenizing.
TRA analysis was carried out at ABC Laboratories. The radioactivity in plasma (duplicate per time point) and urine samples (triplicate per time point) was quantitated by direct counting in a Beckman LS6000SC or LS6500 liquid scintillation counter (PerkinElmer Life and Analytical Sciences, Boston, MA, USA). Whole blood (duplicate per time point) and fecal homogenate (triplicate per time point) samples were oxidized, and the resultant ^14CO2 was trapped in Carbosorb (Calgon Carbon Corporation, Pittsburgh, PA, USA) in combination with Permafluor, followed by liquid scintillation counting to determine the radioactivity. Individual samples were counted for 5 min for whole blood and fecal matrices, and 10 min for plasma and urine matrices. Predose blood, plasma, urine, and feces samples served as respective control samples to determine and subtract the background radioactivity in the analysis.
M14 was quantitated using a different LC/MS/MS method (Online Resource 2). The pharmacokinetic analysis was carried out using WinNonlin® v6.4 (Pharsight Corp., Mountain View, CA, USA).
Aliquots of 30 µl of calibration standards, quality controls, and incurred plasma samples were transferred into a 96-well plate. Then 150 µl of ice-cold acetonitrile containing 50 ng/ml of AP30376 (d6-AP24600, internal standard) were added. The 96-well plate was vortexed for 10 min and then centrifuged at 4750 rpm for 20 min at 4°C. 100 µl aliquots of the supernatants were transferred into another 96-well plate and the samples were analyzed by liquid chromatography tandem mass spectrometry.

[4] = Metabolite profiling of plasma (HPLC-radiochromatography); type: in vivo, human; conditions: % of TRA
Procedure: For each subject, a 0–24 h pooled plasma sample was prepared according to the scheme outlined in the literature. In addition, several pooled plasma samples across all subjects were prepared at these time points: 5, 10, 12, […], and 48 h, and every 24 h thereafter until 240 h.
All pooled 0–24, 5, 10, 12, and 24 h plasma samples were processed as follows. […] The samples were vortexed for 30 min and centrifuged at 4500g at 4 °C for 6 min. The supernatants were transferred into new polypropylene tubes and kept on ice. The resulting plasma protein pellets were extracted twice to ensure good recovery and the extracts were combined. The combined extracts were loaded onto Ostro sample preparation plates (Waters Corporation, Milford, MA, USA), dried, eluted with 0.2 mL of cold acetonitrile, and all eluates were collected and evaporated under nitrogen (TurboVap LV; Caliper Life Sciences, Hopkinton, MA, USA). The dry residues were reconstituted in 0.1 mL of methanol, and a 0.005-mL aliquot was removed for determination of radioactivity. The remainder of the supernatants were transferred to high-performance liquid chromatography (HPLC) vials and stored at −80 °C until analysis.
Pooled post-24-h plasma samples were extracted using a slightly modified procedure. […] Appropriate volumes of formic acid were added to achieve a final concentration of 1%. Then, the samples were warmed to 37 °C and loaded to preconditioned Oasis HLB cartridges (Waters Corporation, Milford, MA, USA). These columns were then washed with water, dried under vacuum, and eluted with methanol. The eluates were collected and evaporated under nitrogen. The dry residues were reconstituted in 0.1 mL of methanol, and a 0.005-mL aliquot was removed for determination of radioactivity. The remainder of the supernatants were transferred to HPLC vials and stored at −80 °C until analysis.
(§1) A Finnigan Surveyor HPLC system (Thermo Fisher Scientific Inc., San Jose, CA, USA), consisting of an LC pump plus an autosampler and a UV–Vis plus detector, was used mostly for profiling (except the post-24-h plasma samples, which were analyzed using a Dionex HPLC system). A Phenomenex® Gemini® C18, 5-μm, 3.0 × 100-mm column (Phenomenex Inc., Torrance, CA, USA) was used along with a C-12 guard column (4 × 2 mm). LC conditions were as follows: solvent A was 10 mM ammonium bicarbonate in water (pH 10.0) and solvent B was 100% methanol and the flow rate was 0.8 mL/min. The following gradient was employed (B%): 0–5 min (20%), 32 min (42%), 33 min (60%), 55 min (70%), 56–60 min (95%), and 62–70 min (20%).
(§2) Reconstituted solvent extracts (0.050–0.10 mL) of plasma, urine, or feces were injected onto the HPLC column. The post-column eluate was split after UV detection into two streams (0.64 and 0.16 mL/min). The 0.64-mL stream was diverted to a fraction collector (Gilson FX 204; Gilson Medical Electronics, Middleton, WI, USA) to be collected in 96-well plates at 0.16 min/well (ScintiPlates; PerkinElmer Life Sciences, Shelton, CT, USA), and the 0.16-mL stream was directed to the mass spectrometer. The solvent in the 96-well plates was removed at 40 °C using a Genevac evaporator (Genevac, Inc., Stone Ridge, NY, USA).
(§3) The radioactivity counts per minute (CPM) in each well was determined using a MicroBeta scintillation counter (PerkinElmer Life and Analytical Sciences). The resulting CPM vs. time data were processed using Excel (Microsoft Corporation, Seattle, WA, USA). The CPM in each well was background-subtracted (using the average CPM values of the blank region of the HPLC run). Radiochromatographic profiles were obtained by plotting the resulting net CPM values against time after injection. Radioactive peaks in the chromatographic profiles were identified, and the radioactivity in each peak was summed and reported as a percentage of TRA in the HPLC run.

BCR–ABL [5] = target: T1, BCR–ABL (Homo sapiens, UniProt P00519+P11274); assay: In vitro cellular activity screen against BCR–ABL (data not shown); type: cell-based
T1 sequence (P00519 229-512 limits assumed): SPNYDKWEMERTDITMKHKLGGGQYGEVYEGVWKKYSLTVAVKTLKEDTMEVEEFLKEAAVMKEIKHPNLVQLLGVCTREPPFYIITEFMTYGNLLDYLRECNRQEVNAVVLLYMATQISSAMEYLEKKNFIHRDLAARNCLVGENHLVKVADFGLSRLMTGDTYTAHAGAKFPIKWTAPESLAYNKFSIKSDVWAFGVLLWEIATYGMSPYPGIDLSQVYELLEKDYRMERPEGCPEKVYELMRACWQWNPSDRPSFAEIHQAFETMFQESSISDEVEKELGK

[6] = Metabolite profiling of urine (HPLC-radiochromatography); type: in vivo, human; conditions: 0–72 h pool
Procedure: Predose and 0–72-h urine samples (grand pool of all six subjects) were prepared. Urine samples (5 mL) were centrifuged, the supernatant was transferred to a 15-mL polypropylene tube and placed on ice; the residues were extracted with 1 mL of methanol and the methanol extracts were added to the supernatants. The combined extracts were evaporated under nitrogen and reconstituted in 0.2 mL of methanol. A 0.010-mL aliquot of the reconstituted solution was removed for determination of radioactivity, and the remainder was transferred to HPLC vials and stored at −80 °C.
as §1, §2, §3

Compound | Matrix (in which the metabolite was found) [1] | activity against BCR–ABL, kinase screen (BCR–ABL [2]) | time postdose at which C max / maximal levels in plasma were observed ([3]; human plasma) | concentration at 144 h ([3]; male, human, plasma, 45 mg) | % Distribution in plasma ([4]; 0–24 h pooled plasma) | % Distribution in plasma ([4]; 5 h pooled plasma) | % Distribution in plasma ([4]; 10 h pooled plasma) | % Distribution in plasma ([4]; 12 h pooled plasma) | % Distribution in plasma ([4]; 36 h pooled plasma) | % Distribution in plasma ([4]; 48 h pooled plasma) | % Distribution in plasma ([4]; 72 h pooled plasma) | % Distribution in plasma ([4]; 96 h pooled plasma) | activity against BCR–ABL, cellular activity screen (BCR–ABL [5]) | further results
Cc1ccc(C(=O)O)cc1C#Cc1cnc2cccnn12 [M14, 3-(imidazo[1,2-b]pyridazin-3-ylethynyl)-4-methylbenzoic acid] | P, U | inactive | 2 to 12 h | < 2.4 nM | 14.9% | 29.0% | 10.8% | 12.8% | 2.4% | – (“–” values less than 0.5% are not reported) | – (“–” values less than 0.5% are not reported) | – (“–” values less than 0.5% are not reported) | inactive | plasma level at 144 h postdose ([3]; human plasma, 144 h postdose): at or below detectable limits; AUC(0-inf) ([3]; male, human, plasma, po, 45 mg): 0.181 µM·h; AUC(0-t) ([3]; male, human, plasma, po, 45 mg): 0.169 µM·h; Cmax ([3]; male, human, plasma, po, 45 mg): 5 nM; Tmax ([3]; male, human, plasma, po, 45 mg): 5 h; half-life ([3]; male, human, plasma, po, 45 mg): 33.7 h; % of total radioactive dose [6]: 0.3%; % Distribution in matrix ([6]; % of urinary TRA): 5.6%
Cc1ccc(C(=O)Nc2ccc(C(=O)O)c(C(F)(F)F)c2)cc1C#Cc1cnc2cccnn12 [M23, 4-(3-(imidazo[1,2-b]pyridazin-3-ylethynyl)-4-methylbenzamido)-2-(trifluoromethyl)benzoic acid] | P, U, F | inactive | 36 h | < 3 nM | 7% | – (“–” values less than 0.5% are not reported) | 3.4% | 2.4% | 3.9% | 5.4% | 10.7% | 6.0% | inactive | –
